Drawing on publication PMC5047857, “Screening, production, optimization and characterization of β-glucosidase using microbes from shellfish waste” (3 Biotech, 2016), this text covers Km for one compound.

The assay has as its system T1, β-glucosidase.
T1 construct: gene EC 3.2.1.21; native extracellular enzyme, partially purified from culture (ammonium sulfate, dialysis, Sephadex gel filtration); approx. 50 kDa by SDS-PAGE
The experiment in a line: p-nitrophenol release, absorbance at […] nm; plot of activity against substrate concentration. As to conditions: partially purified enzyme; substrate of the standard assay (pNPG); pH and temperature of the kinetic run not given. In kind it is biochemical, Proteus mirabilis.

In the case of `O=[N+]([O-])c1ccc(O[C@@H]2O[C@H](CO)[C@@H](O)[C@H](O)[C@H]2O)cc1` [pNPG, p-Nitrophenyl-β-D-glucopyranoside], the Km (usually the substrate concentration at which the rate is half of its maximum) came out at 82 µM.
